From PubChem BioAssay AID1919001 (Molecular Pharmacology Branch, DTP, NCI, 2023)

Tested on: 699152-130-R-J1-PDC complex spheroid growth
Experiment: Anticancer human tumor 699152-130-R-J1-PDC patient-derived pancreatic carcinoma cell line growth inhibition [AhR]
Conditions: for IC50: curve of first compound; for viability, T/C: stronger effect = lower value
How it was run: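 Spheroids combined tumor cells with HUVEC endothelial cells and human MSCs as stroma. AhR antagonists were paired with standard or investigational drugs, each dosed in half-log steps down from near clinical Cmax, or from 10 microM where Cmax was unknown.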

[1] = second compound 0.1 µM, first compound 0.0316 µM
[2] = second compound 0.1 µM, first compound 0.1 µM
[3] = second compound 0.316 µM, first compound 0.0316 µM
[4] = second compound 0.316 µM, first compound 0.1 µM
[5] = second compound 1 µM, first compound 0.0316 µM
[6] = second compound 1 µM, first compound 0.1 µM
[7] = second compound 3.16 µM, first compound 0.0316 µM
[8] = second compound 3.16 µM, first compound 0.1 µM
[9] = second compound 10 µM, first compound 0.0316 µM
[10] = second compound 10 µM, first compound 0.1 µM
[11] = second compound 0.1 µM, first compound 0.00949 µM
[12] = second compound 0.1 µM, first compound 0.03 µM
[13] = second compound 0.1 µM, first compound 0.0949 µM
[14] = second compound 0.1 µM, first compound 0.3 µM
[15] = second compound 0.316 µM, first compound 0.00949 µM
[16] = second compound 0.316 µM, first compound 0.03 µM
[17] = second compound 0.316 µM, first compound 0.0949 µM
[18] = second compound 0.316 µM, first compound 0.3 µM
[19] = second compound 1 µM, first compound 0.00949 µM
[20] = second compound 1 µM, first compound 0.03 µM
[21] = second compound 1 µM, first compound 0.0949 µM
[22] = second compound 1 µM, first compound 0.3 µM
[23] = second compound 3.16 µM, first compound 0.00949 µM
[24] = second compound 3.16 µM, first compound 0.03 µM
[25] = second compound 3.16 µM, first compound 0.0949 µM
[26] = second compound 3.16 µM, first compound 0.3 µM
[27] = second compound 10 µM, first compound 0.00949 µM
[28] = second compound 10 µM, first compound 0.03 µM
[29] = second compound 10 µM, first compound 0.0949 µM
[30] = second compound 10 µM, first compound 0.3 µM
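Note: compound exposure lasted 7 days after spheroids had grown for 3 days.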

Compound `CC1(C)CCC(CN2CCN(c3ccc(C(=O)NS(=O)(=O)c4ccc(NCC5CCOCC5)c([N+](=O)[O-])c4)c(Oc4cnc5[nH]ccc5c4)c3)CC2)=C(c2ccc(Cl)cc2)C1` + CC(CO)NC(=O)c1cc(-c2ccc(Cl)cc2)nn(-c2cnn(C)c2)c1=O has an IC50 (second compound 0.1 µM) of over 10000 nM, an IC50 (second compound 0.316 µM) of over 10000 nM and an IC50 (second compound 1 µM) of over 10000 nM. It also gave an IC50 (second compound 3.16 µM) of over 10000 nM, an IC50 (second compound 10 µM) of over 10000 nM and a viability, T/C [1] of 102%. For the same compound, the viability, T/C [2] was 119%, the viability, T/C (second compound 0.1 µM, first compound 0.316 µM) was 95.8% and the viability, T/C (second compound 0.1 µM, first compound 1 µM) was 111%. The viability, T/C (second compound 0.1 µM, first compound 3.16 µM) was 89.1%, the viability, T/C (second compound 0.1 µM, first compound 10 µM) was 60.5% and the viability, T/C [3] was 104%. The viability, T/C [4] was 109%, the viability, T/C (second compound 0.316 µM, first compound 0.316 µM) was 96.5% and the viability, T/C (second compound 0.316 µM, first compound 1 µM) was 92.2%. The viability, T/C (second compound 0.316 µM, first compound 3.16 µM) was 87.1%, the viability, T/C (second compound 0.316 µM, first compound 10 µM) was 63.1% and the viability, T/C [5] was 96.2%. The viability, T/C [6] was 108%, the viability, T/C (second compound 1 µM, first compound 0.316 µM) was 105% and the viability, T/C (second compound 1 µM, first compound 1 µM) was 102%. The viability, T/C (second compound 1 µM, first compound 3.16 µM) was 95.4%, the viability, T/C (second compound 1 µM, first compound 10 µM) was 66% and the viability, T/C [7] was 98%. For the same compound, the viability, T/C [8] was 100%, the viability, T/C (second compound 3.16 µM, first compound 0.316 µM) was 102% and the viability, T/C (second compound 3.16 µM, first compound 1 µM) was 83%. For the same compound, the viability, T/C (second compound 3.16 µM, first compound 3.16 µM) was 96.9%, the viability, T/C (second compound 3.16 µM, first compound 10 µM) was 65% and the viability, T/C [9] was 90.8%. The viability, T/C [10] was 91.3%, the viability, T/C (second compound 10 µM, first compound 0.316 µM) was 97.5% and the viability, T/C (second compound 10 µM, first compound 1 µM) was 84.2%. The viability, T/C (second compound 10 µM, first compound 3.16 µM) was 84.4% and the viability, T/C (second compound 10 µM, first compound 10 µM) was 73.7%.

For `CCN(c1cc(-c2ccc(CN3CCOCC3)cc2)cc(C(=O)NCc2c(C)cc(C)[nH]c2=O)c1C)C1CCOCC1` + CC(CO)NC(=O)c1cc(-c2ccc(Cl)cc2)nn(-c2cnn(C)c2)c1=O, the IC50 (second compound 0.1 µM) was over 3000 nM, the IC50 (second compound 0.316 µM) was over 3000 nM and the IC50 (second compound 1 µM) was over 3000 nM. The IC50 (second compound 3.16 µM) was over 3000 nM, the IC50 (second compound 10 µM) was over 3000 nM and the viability, T/C [11] was 97.8%. It also gave a viability, T/C [12] of 105%, a viability, T/C [13] of 99.2% and a viability, T/C [14] of 96.2%. The viability, T/C (second compound 0.1 µM, first compound 0.949 µM) was 100%, the viability, T/C (second compound 0.1 µM, first compound 3 µM) was 102% and the viability, T/C [15] was 107%. It also gave a viability, T/C [16] of 99.4%, a viability, T/C [17] of 96.6% and a viability, T/C [18] of 94.5%. For the same compound, the viability, T/C (second compound 0.316 µM, first compound 0.949 µM) was 94.6%, the viability, T/C (second compound 0.316 µM, first compound 3 µM) was 99.4% and the viability, T/C [19] was 105%. The viability, T/C [20] was 106%, the viability, T/C [21] was 108% and the viability, T/C [22] was 97.3%. For the same compound, the viability, T/C (second compound 1 µM, first compound 0.949 µM) was 99.4%, the viability, T/C (second compound 1 µM, first compound 3 µM) was 111% and the viability, T/C [23] was 97.1%. The viability, T/C [24] was 89.1%, the viability, T/C [25] was 104% and the viability, T/C [26] was 91.2%. For the same compound, the viability, T/C (second compound 3.16 µM, first compound 0.949 µM) was 83.6%, the viability, T/C (second compound 3.16 µM, first compound 3 µM) was 95.1% and the viability, T/C [27] was 93.9%. It also gave a viability, T/C [28] of 92.2%, a viability, T/C [29] of 95.1% and a viability, T/C [30] of 85%. The viability, T/C (second compound 10 µM, first compound 0.949 µM) was 86.5% and the viability, T/C (second compound 10 µM, first compound 3 µM) was 87.5%.

Compound `Cn1ncnc1C1c2n[nH]c(=O)c3cc(F)cc(c23)NC1c1ccc(F)cc1` (stereo not given) + CC(CO)NC(=O)c1cc(-c2ccc(Cl)cc2)nn(-c2cnn(C)c2)c1=O has an IC50 (second compound 0.1 µM) of over 100 nM, an IC50 (second compound 0.316 µM) of over 100 nM and an IC50 (second compound 1 µM) of over 100 nM. It also gave an IC50 (second compound 3.16 µM) of over 100 nM, an IC50 (second compound 10 µM) of over 100 nM and a viability, T/C (second compound 0.1 µM, first compound 0.000316 µM) of 102%. It also gave a viability, T/C (second compound 0.1 µM, first compound 0.001 µM) of 113%, a viability, T/C (second compound 0.1 µM, first compound 0.00316 µM) of 104% and a viability, T/C (second compound 0.1 µM, first compound 0.01 µM) of 108%. For the same compound, the viability, T/C [1] was 102%, the viability, T/C [2] was 98.9% and the viability, T/C (second compound 0.316 µM, first compound 0.000316 µM) was 105%. The viability, T/C (second compound 0.316 µM, first compound 0.001 µM) was 102%, the viability, T/C (second compound 0.316 µM, first compound 0.00316 µM) was 120% and the viability, T/C (second compound 0.316 µM, first compound 0.01 µM) was 103%. For the same compound, the viability, T/C [3] was 86.2%, the viability, T/C [4] was 103% and the viability, T/C (second compound 1 µM, first compound 0.000316 µM) was 101%. It also gave a viability, T/C (second compound 1 µM, first compound 0.001 µM) of 99.3%, a viability, T/C (second compound 1 µM, first compound 0.00316 µM) of 102% and a viability, T/C (second compound 1 µM, first compound 0.01 µM) of 101%. It also gave a viability, T/C [5] of 101%, a viability, T/C [6] of 102% and a viability, T/C (second compound 3.16 µM, first compound 0.000316 µM) of 91.5%. The viability, T/C (second compound 3.16 µM, first compound 0.001 µM) was 95.3%, the viability, T/C (second compound 3.16 µM, first compound 0.00316 µM) was 97.6% and the viability, T/C (second compound 3.16 µM, first compound 0.01 µM) was 96.9%. The viability, T/C [7] was 92.9%, the viability, T/C [8] was 84.2% and the viability, T/C (second compound 10 µM, first compound 0.000316 µM) was 95.4%. The viability, T/C (second compound 10 µM, first compound 0.001 µM) was 81.3%, the viability, T/C (second compound 10 µM, first compound 0.00316 µM) was 91% and the viability, T/C (second compound 10 µM, first compound 0.01 µM) was 85.5%. For the same compound, the viability, T/C [9] was 80.1% and the viability, T/C [10] was 79.5%.

With `Nc1ncn(C2CC(O)C(CO)S2)c(=O)n1` (stereo not given) + CC(CO)NC(=O)c1cc(-c2ccc(Cl)cc2)nn(-c2cnn(C)c2)c1=O the IC50 (second compound 0.1 µM) was over 300 nM, the IC50 (second compound 0.316 µM) was over 300 nM and the IC50 (second compound 1 µM) was over 300 nM. The IC50 (second compound 3.16 µM) was over 300 nM, the IC50 (second compound 10 µM) was over 300 nM and the viability, T/C (second compound 0.1 µM, first compound 0.000949 µM) was 98%. The viability, T/C (second compound 0.1 µM, first compound 0.003 µM) was 104%, the viability, T/C [11] was 85.7% and the viability, T/C [12] was 103%. It also gave a viability, T/C [13] of 97.8%, a viability, T/C [14] of 94.2% and a viability, T/C (second compound 0.316 µM, first compound 0.000949 µM) of 89.6%. The viability, T/C (second compound 0.316 µM, first compound 0.003 µM) was 111%, the viability, T/C [15] was 105% and the viability, T/C [16] was 93.1%. The viability, T/C [17] was 93.8%, the viability, T/C [18] was 87.1% and the viability, T/C (second compound 1 µM, first compound 0.000949 µM) was 93.8%. For the same compound, the viability, T/C (second compound 1 µM, first compound 0.003 µM) was 101%, the viability, T/C [19] was 89.1% and the viability, T/C [20] was 95.3%. For the same compound, the viability, T/C [21] was 94.1%, the viability, T/C [22] was 86.1% and the viability, T/C (second compound 3.16 µM, first compound 0.000949 µM) was 86.3%. The viability, T/C (second compound 3.16 µM, first compound 0.003 µM) was 88%, the viability, T/C [23] was 91.8% and the viability, T/C [24] was 88.9%. It also gave a viability, T/C [25] of 90.1%, a viability, T/C [26] of 85% and a viability, T/C (second compound 10 µM, first compound 0.000949 µM) of 80.7%. The viability, T/C (second compound 10 µM, first compound 0.003 µM) was 91.8%, the viability, T/C [27] was 84.6% and the viability, T/C [28] was 87.2%. It also gave a viability, T/C [29] of 87% and a viability, T/C [30] of 86%.
